Values after ≈ are worked out from the molar mass of the structure shown. Values joined by “and” are separate entries in the source; they are usually repeats but may differ in a detail not shown here. Equal entries are not always repeated.
Key:
[1] = DMSO-d6, 25–85 °C
[2] = biological target: Keap1 (Kelch domain = aa321–aa609) (Homo sapiens, UniProt Q14145); experiment: biochemical; conditions: KD SPR, supplementary CSV; ISA format
physchem [3] = conditions: pH 7.4
physchem [4] = conditions: pH 7.4; remark: listed apart in the source

CC(=O)N1CCC[C@H]1C(=O)N[C@@H]1COC(=O)c2ccccc2COC[C@H](C(=O)N(C)C)NC1=O [Compound 6, (4R,7R)-7-((S)-1-Acetylpyrrolidine-2-carboxamido)-N,N-dimethyl-6,10-dioxo-1,3,4,5,6,7,8,10-octahydrobenzo[j][1,8]dioxa[4]azacyclododecine-4-carboxamide]
Δδ/T, NHA (cysteine NH) [1]: 3.50 ppb/K
Δδ/T, NHB (serine NH) [1]: 3.5 ppb/K and 3.53 ppb/K

COC(=O)CCC(=O)N1CCC[C@H]1C(=O)N[C@@H]1COC(=O)c2ccccc2CSC[C@H](C(=O)N(C)C)NC1=O [Compound S3]
Kd [2]: 17.1 µM

CC(=O)N1CCC[C@H]1C(=O)N[C@@H]1COC(=O)c2cccc(-c3ccc(C(=O)O)cc3)c2CSC[C@H](C(=O)N(C)C)NC1=O [Compound 64, 4-((4S,7R)-7-((S)-1-Acetylpyrrolidine-2-carboxamido)-4-(dimethylcarbamoyl)-6,10-dioxo-1,3,4,5,6,7,8,10-octahydrobenzo[j][1]oxa[8]thia[5]azacyclododecin-14-yl)benzoic Acid]
solubility (physchem [3]): > 850 µM
logD (physchem [4]): < -1.5

CN(C)C(=O)[C@H]1CSCc2ccccc2C(=O)OC[C@@H](NC(=O)[C@@H]2CCCN2C(=O)c2ccccc2NS(C)(=O)=O)C(=O)N1 [Compound S8]
Kd [2]: 15.3 µM

CN(C)C(=O)[C@H]1CSCc2ccccc2C(=O)OC[C@@H](NC(=O)[C@@H]2CCCN2C(=O)Cc2cc3ccccc3s2)C(=O)N1 [Compound S13]
Kd [2]: 35.4 µM

CN(C)C(=O)[C@H]1CSCc2ccccc2C(=O)OC[C@@H](NC(=O)[C@@H]2CCCN2C(=O)Cc2cccnc2)C(=O)N1 [Compound S16]
Kd [2]: 51 µM

CC(=O)N1CCC[C@H]1C(=O)N[C@@H]1COC(=O)c2cccc(-c3cc(C)c(C(=O)O)c(C)c3)c2CSC[C@H](C(=O)N(C)C)NC1=O [Compound 77, 4-((4S,7R)-7-((S)-1-Acetylpyrrolidine-2-carboxamido)-4-(dimethylcarbamoyl)-6,10-dioxo-1,3,4,5,6,7,8,10-octahydrobenzo[j][1]oxa[8]thia[5]azacyclododecin-14-yl)-2,6-dimethylbenzoic Acid]
solubility (physchem [3]): 965 ± 38 µM (≈ 616 µg/mL)
logD (physchem [4]): < -1.4

CN(C)C(=O)[C@H]1CSCc2ccccc2C(=O)OC[C@@H](NC(=O)[C@@H]2CCCN2C(=O)c2cccn(C)c2=O)C(=O)N1 [Compound S7]
Kd [2]: 14.7 µM

CC(=O)N(CC(=O)N1CCC[C@H]1C(=O)N[C@@H]1COC(=O)c2ccccc2CSC[C@H](C(=O)N(C)C)NC1=O)c1ccccc1 [Compound S11]
Kd [2]: 63.6 µM

CC(=O)N1CCC[C@H]1C(=O)N[C@@H]1COC(=O)c2cccc(-c3cc(F)c(C(=O)O)c(F)c3)c2CSC[C@H](C(=O)N(C)C)NC1=O [Compound 78, 4-((4S,7R)-7-((S)-1-Acetylpyrrolidine-2-carboxamido)-4-(dimethylcarbamoyl)-6,10-dioxo-1,3,4,5,6,7,8,10-octahydrobenzo[j][1]oxa[8]thia[5]azacyclododecin-14-yl)-2,6-difluorobenzoic Acid]
solubility (physchem [3]): > 1000 µM
logD (physchem [4]): < -0.8

CN(C)C(=O)[C@H]1CSCc2ccccc2C(=O)OC[C@@H](NC(=O)[C@@H]2CCCN2C(=O)c2ccccc2-n2cnnn2)C(=O)N1 [Compound S21]
Kd [2]: 13 µM
